# Laboratory results published in patent US5147856A, “Method for inhibiting blood vessel blockage using octapeptide compositions” (Societe de Conseils de Recherches et d'Applications …, priority 1988, dated 1992).
# Values joined by “and” are separate entries in the source; they are usually repeats but may differ in a detail not shown here. Identical values can stand only once. Square brackets hold non-standard residues; d marks the D form. Mpa = O=C(O)CCS
# Experiments:
# [1] = test system: smooth muscle cell proliferation in the aorta and femoral arteries; assay: Primate balloon catheter injury of aorta and femoral arteries (Example 5); assay type: in vivo, cynomologous macaque; settings: aorta and left and right femoral arteries; i.m. slow release system, 50 μg/kg/day; one treated primate vs one control; five weeks
# Procedure: In order to obtain a primate coronary angioplasty model which would be suited for evaluation of Angiopeptin, a feasibility study was performed on primates which were made available from the colony at Bowman-Gray Medical School, Winston-Salem, North Carolina. These animals were culled from the colony due to failure of the primates to satisfactorily elevate blood lipids when administered a high cholesterol diet. Young male cynomologous macaques weighing approximately 3.5 kg were used after an equilibration period of more than a week in a primate facility.
# The animals were sedated with Ketamine and maintained with 1% halothane in oxygen. The aorta and femoral arteries were injured by a balloon catheter (USCI, Band). After five weeks the primates were anesthetized and sacrificed. The aorta and femoral arteries were removed and fixed in formaldehyde for morphometric analysis. […]
# The maximal intimal/media ratio (distance from lumen to internal elastic lamina/distance from internal elastic lamina to external elastic lamina) was determined in each vessel using a digitizing system attached to a light microscope. The determinations were done on three different cross sections of the vessel and each section was measured three times and each three measurements were averaged.
# [2] = test system: intimal hyperplasia of aorta and iliac arteries; assay: Myointimal hyperplasia in rabbits after balloon angioplasty (Example 3); assay type: in vivo, rabbit; settings: for % Intimal hyperplasia: 20 μg/kg twice daily s.c., individual samples; for Percentage of inhibition of myointimal hyperplasia: 20 μg/kg/d
# Procedure: Female and Male, white New Zealand rabbits (2.8-3.0 kg) were divided into two groups (A and B). Group A (vehicle control) received subcutaneous injections of physiological saline (0.2 ml) twice daily. […] The animals were treated the day before angioplasty, and until sacrifice about 3 weeks later. The angioplasty was done under general anesthesia with Ketamine and Xylazine. Each animal's left iliac artery and aorta were denuded with an angioplasty catheter (Fogarty). The angioplasty catheter was inserted into the left femoral artery and passed through the vessel to the thoracic aorta. The catheter was then reciprocated three times. The animals were all sacrificed from days 22-24 after angioplasty. The aorta and iliac arteries were fixed in situ via perfusion with formaldehyde under constant perfusion pressure.
# Intimal hyperplasia was determined on elastin-stained (Van Giesen) horizontally-cut sections. The sections were obtained from (i) the aorta at the level of the renal artery, (ii) the common iliac artery at the level of bifurcation, and (iii) the external iliac artery just above the inguinal ligament. The area of intimal hyperplasia and total vessel area were determined by morphometry. The percentage of intimal hyperplasia was expressed as follows: [formula]
# Single determinations were made on three segments of each aorta and the two iliac arteries of each animal. The percentage of intimal hyperplasia was determined as the mean of the two closest measurements of each vessel.
# [3] = test system: Smooth Muscle Pig Left Coronary Artery Explants; assay: H3-thymidine incorporation in pig left coronary artery explants (Example 7); assay type: cell-based; settings: 24 hr, individual segments
# Procedure: Domestic pig hearts were obtained from a slaughter house immediately after the animals were sacrificed. The hearts were harvested and placed in ice-cold Kreb's Ringer buffer and transported to the laboratory. The left coronary artery (LAD) was dissected in aseptic conditions and divided into pieces of 5 mm. The segments were denuded from the endothelium by gently introducing a metallic rod in the lumen. The tissues were placed in sterile multiwell culture dishes in 1 ml of culture media (DMEM with antibiotics) and without fetal calf serum. H^3 -thymidine (2.5 uCi/ml) and increasing concentrations of angiopeptin (10-1000 ng/ml) were added to the medium. Segments which were incubated with 3 different concentrations of forskolin were used as a positive control in each experiment. The incubation period was 24 hr at 37° C. and 5% CO2. The tissues were washed with phosphate saline buffer and placed in a solution of cold thymidine for one hour and then frozen in liquid nitrogen, ground and lysed with a hypotonic solution. The lysed tissues were further incubated with proteinase K overnight at 50° C. The radioactivity, content of protein and DNA were measured.
# [4] = test system: myointimal cell proliferation in the aortas of rabbits; assay: Rabbit aorta 72 hours after balloon angioplasty: wet weight, protein, DNA/protein, 3-H thymidine incorporation (Example 6); assay type: in vivo; settings: for DNA/Protein ratio, in words: FIG. 3; for Rates of cell proliferation by 3-H thymidine incorporation, in words: FIG. 4
# Procedure: New Zealand White Rabbits were anesthetised with Rompun (Xylazine) and Ketalar (Ketamine) and a cannula (3F Fogarty) was inserted from the femoral artery. The balloon was inflated at a constant pressure and the aorta was de-endothelialised by angioplasty. The process was repeated three times and the wound site was closed. The animals were sacrificed 72 hours after balloon angioplasty and after removing the adventitia the aorta was cut into fine rings. These rings were incubated in the presence of 3-H thymidine and the radioactivity was determined after processing the tissue. Simultaneous measurements of DNA and protein contents were also made in these tissues.
# Eight injections of Angiopeptin were made: on the morning and evening of the day prior to ballooning; two on the day of the procedure; and two on each of the following two days. The total daily dose was 2, 20, or 200 μg/Kg body weight.
# [5] = test system: growth hormone release; settings: cited from earlier work; for Inhibition of growth hormone release, in words: in vivo; for Potency for growth hormone suppression in vivo, relative to somatostatin 14: rats, compared to somatostatin 14 (=1)
# [6] = test system: myointimal proliferation of the carotid artery; assay: Air-drying injury of the rat carotid artery, intimal/media ratio (Example 2); assay type: in vivo; settings: for Intimal/Media Ratio: mean ± SE; for Inhibition of myointimal (smooth muscle cell) proliferation of the carotid artery, in words: administered from two days prior to injury, at the doses used (20 and 50 μg/kg/day)
# Procedure: Male Sprague-Dawley rats, weighing […], obtained from Charles River were kept under controlled lighting conditions and fed rat chow and water ad libitum. Under sodium pentobarbital anesthesia the intima of the right carotid artery was subjected to an air-drying injury described by Fishman et al, Lab Invest., 32, 339 (1975). The procedure causes intimal hyperplasia that largely consists of proliferating intimal smooth muscle cells. In this model approximately 4 cm of the vessel is isolated and drained of blood. Air (20 ml/min) is blown through a 30 gauge needle for 5 min whereafter blood flow is reestablished. The contralateral carotid artery was also exposed but not air-dried. The rats were sacrificed 15 days later.
# The experiment consisted of a control group and ten treatment groups. The somatostatin analogs used were hepta- or octapeptides, namely BIM 23014 (Angiopeptin), BIM 23012, BIM 23027, BIM 23030 and BIM 23034. […] The animals were pretreated two days prior to the procedure and for a further five days following the endothelial injury. Two additional groups of animals were added in order to study whether Angiopeptin (20 μg/kg/day and 50 μg/kg/day) administered 30 min prior to the endothelial injury and for a further five days would protect against the myointimal proliferation.
# The animals were sacrificed on day 15 following the injury by exsanguination. The vascular system was flushed with normal saline and perfusion-fixed at 80 mmHg with 10% formalin. The carotid arteries were subsequently fixed, embedded and sectioned for light microscopy and morphometric analysis. The maximal intimal/media ratio is the distance from the lumen to the internal elastic lamina and the distance from the internal elastic lamina to the external elastic lamina. The distances were determined in each vessel using a digitizing system attached to a light microscope. The determinations were performed on three different cross sections of the vessel and each section was measured three times. The mean was calculated for each vessel. Differences between the groups were evaluated using Student's unpaired t-test.
# [7] = test system: hyperplasia of the right carotid artery; assay: Air-drying injury of the rat right carotid artery, ratio of width of intimal and medial layers (Example 4); assay type: in vivo; settings: 50 μg/kg/day s.c. twice a day
# Procedure: Angiopeptin was administered s.c. twice a day 50 μg/kg/day to male Sprague-Dawley (Charles River) rats, 250-350 g each. After two days of pre-treatment, a lesion was made on the third day after the morning dose by air-drying the right carotid artery while the rats were under anesthesia (Ketamine-Innovar, i.m.). Treatment was continued on day: 4, 5, 6, and 7. The rats were sacrificed on day 14 following the injury. After in-situ fixation at constant pressure, with 10% formalin, the tissues were prepared to form morphometrics.
# Hyperplasia was measured as the ratio of width of intimal and medial layers. For each rat, 3 different histological sections were measured and the morphometrics was done 3 times on each section.
# [8] = common iliac artery, female rabbits
# [9] = common iliac artery, male rabbits
# [10] = external iliac artery, female rabbits
# [11] = 20 μg/kg/day s.c. in two divided doses, from two days prior to injury and five days postinjury, sacrifice day 15
# [12] = 50 μg/kg/day s.c. in two divided doses, from two days prior to injury and five days postinjury, sacrifice day 15
compound,measurement,setting,value
"CC(C)[C@@H]1NC(=O)[C@H](CCCCN)NC(=O)[C@@H](Cc2c[nH]c3ccccc23)NC(=O)[C@H](Cc2ccc(O)cc2)NC(=O)[C@@H](NC(=O)[C@H](N)Cc2ccc3ccccc3c2)CSSC[C@@H](C(=O)N[C@H](C(N)=O)[C@@H](C)O)NC1=O [Angiopeptin, D-Nal-Cys-Tyr-D-Trp-Lys-Val-Cys-Thr-NH2]","Inhibition of smooth muscle cell proliferation, in words",[1],nearly complete inhibition
same,% Intimal hyperplasia,"[2]; aorta, female rabbits",13.0% and 6.4%
same,Percentage of inhibition of myointimal hyperplasia,"[2]; aorta, female rabbits",~43%
same,% Intimal hyperplasia,"[2]; aorta, male rabbits",17.0%
same,Percentage of inhibition of myointimal hyperplasia,"[2]; aorta, male rabbits",~32%
same,% Intimal hyperplasia,[2]; [8],9.3% and 9.5% and 7.7% and 6.5%
same,Percentage of inhibition of myointimal hyperplasia,[2]; [8],~33%
same,% Intimal hyperplasia,[2]; [9],16.0% and 6.4% and 14.0%
same,Percentage of inhibition of myointimal hyperplasia,[2]; [9],~39%
same,% Intimal hyperplasia,[2]; [10],6.6%
same,Percentage of inhibition of myointimal hyperplasia,[2]; [10],about 41%
same,Percentage of inhibition of myointimal hyperplasia,"[2]; external iliac artery, male rabbits",~20%
same,CPM (H3-thymidine radioactivity),[3]; Angiopeptin 10 ng/ml,35113.84 CPM and 46392.32 CPM and 27312.80 CPM and 55980.00 CPM
same,CPM (H3-thymidine radioactivity),[3]; Angiopeptin 20 ng/ml,26279.81 CPM and 39027.27 CPM and 39706.01 CPM and 21562.08 CPM
same,CPM (H3-thymidine radioactivity),[3]; Angiopeptin 50 ng/ml,18942.16 CPM and 24269.18 CPM and 40768.09 CPM and 18983.78 CPM
same,CPM (H3-thymidine radioactivity),[3]; Angiopeptin 100 ng/ml,20794.85 CPM and 32402.31 CPM and 22033.48 CPM and 26227.64 CPM
same,CPM (H3-thymidine radioactivity),[3]; Angiopeptin 1000 ng/ml,18325.51 CPM and 27260.98 CPM and 30226.99 CPM and 32344.58 CPM
same,"Total protein content of injured aortas, in words","[4]; 2 μg/kg, FIG. 2",lowered
same,"DNA/Protein ratio, in words",[4]; 20 μg/kg body weight,significantly lowered
same,"Rates of cell proliferation by 3-H thymidine incorporation, in words",[4]; 20 μg/kg body wt.,significantly lower
same,"DNA/Protein ratio, in words",[4]; 200 μg/kg body wt.,reflected the inhibitory influence
same,"Rates of cell proliferation by 3-H thymidine incorporation, in words",[4]; 200 μg/kg,still inhibited
same,"Wet weight of aortas, in words","[4]; 2, 20, 200 μg/kg body wt. total daily dose, FIG. 1",does not seem to influence
same,"Levels of total proteins, in words","[4]; higher doses (20 and 200 μg/kg), FIG. 2",did not affect
same,"Rates of cell proliferation by 3-H thymidine incorporation, in words",[4]; overall,significantly inhibited
same,"Inhibition of growth hormone release, in words",[5],less active
same,"Potency for growth hormone suppression in vivo, relative to somatostatin 14",[5],5
same,Intimal/Media Ratio,[6]; [11],1.7 ± 0.2
same,Intimal/Media Ratio,"[6]; 20 μg/kg/day, pretreatment 30 min prior to injury and for a further five days",1.6 ± 0.9
same,"Inhibition of myointimal proliferation, in words",[6]; 50 μg/kg/day from 30 min prior to injury and for a further five days,significantly (p<0.01) inhibited
same,Intimal/Media Ratio,[6]; [12],1.1 ± 0.2
same,Intimal/Media Ratio,"[6]; 50 μg/kg/day, pretreatment 30 min prior to injury and for a further five days",1.0 ± 0.3
same,"Inhibition of myointimal (smooth muscle cell) proliferation of the carotid artery, in words",[6],inhibited significantly
same,"Inhibition of myointimal proliferation, in words","[6]; high dose 50 μg/kg/day, from two days prior to injury",effective
same,"Inhibition of myointimal proliferation, in words","[6]; low dose 20 μg/kg/day, from two days prior to injury",effective
same,Hyperplasia: ratio of width of intimal and medial layers,"[7]; two days pre-treatment and days 4-7, sacrifice day 14, individual rats",0.46 ± 0.08 and 0.28 ± 0.03 and 0.52 ± 0.05 and 0.69 ± 0.02
same,"Hyperplasia: ratio of width of intimal and medial layers, mean","[7]; group mean, N 4",0.48
[Mpa]Y[dW]KVCF-NH2 (cysteine pairing not given here) [BIM 23030],"Potency for growth hormone suppression in vivo, relative to somatostatin 14",[5],0.5
same,Intimal/Media Ratio,[6]; [11],1.6 ± 0.2
same,Intimal/Media Ratio,[6]; [12],2.2 ± 0.5
same,"Inhibition of myointimal (smooth muscle cell) proliferation of the carotid artery, in words",[6],did not inhibit
D-Trp--Lys--Abu--Phe--Me--Ala--Tyr [BIM 23027],"Inhibition of growth hormone release, in words",[5],most potent
same,"Potency for growth hormone suppression in vivo, relative to somatostatin 14",[5],100
same,Intimal/Media Ratio,[6]; [11],1.6 ± 0.2
same,Intimal/Media Ratio,[6]; [12],1.5 ± 0.2
same,"Inhibition of myointimal (smooth muscle cell) proliferation of the carotid artery, in words",[6],did not inhibit
D-Phe--Cys--Phe-D-Trp--Lys--Thr--Cys--Thr--NH2 [BIM 23012],"Potency for growth hormone suppression in vivo, relative to somatostatin 14",[5],62
same,Intimal/Media Ratio,[6]; [11],2.3 ± 0.4
same,Intimal/Media Ratio,[6]; [12],1.6 ± 0.4
same,"Inhibition of myointimal (smooth muscle cell) proliferation of the carotid artery, in words",[6],did not inhibit
